From US8716292B2, “Riminophenazines with 2-(heteroaryl)amino substituents and their anti-microbial activity” (priority 2010, dated 2014)
≈ marks a conversion by molar mass, not a printed value. Read-outs that look alike come from different tables or passages of the source.

Assays:
[1] = system: Mycobacterium tuberculosis H37Rv strains; assay: In vitro assay for antimicrobial susceptibility (microplate Alamar blue MIC); assay type: cell-based; settings: Mycobacterium tuberculosis, H37RV, in vitro, Mycobacterium tuberculosis H37Rv strains; read-out: MIC (μg/mL) against H37Rv
H37Rv = assay: In vivo testing: mice infected intravenously with H37Rv, lung tissue CFU counts; set-up: species or system Male BALB/c mice; settings: thirty days postinfection; for Log CFU (TBI treated): 20 mg/kg, gavage 5 times weekly, lung tissue CFU; for log reduction at 20 mg/kg: Mycobacterium tuberculosis, H37RV, iv, 720 h, versus untreated control, lung tissue, read-out: Log CFU Reduction (TBI treated)
Experimental: Male BALB/c mice (18˜20 g) were infected intravenously with 0.2 ml portions containing 1×10^5 CFU of H37Rv. One day after the infection, four mice were sacrificed and the numbers of CFU in the spleens and lungs were determined. Organs were removed and homogenized in Middlebrook 7H9 broth. To enumerate CFU, appropriate dilutions of the homogenates were plated onto Middlebrook 7H10 agar and colonies were counted after 3 to 4 weeks of incubation at 37° C. The remaining mice were allocated either to untreated groups or to various drug treated groups (six mice per group). The dose of every test compound was 20 mg/kg. The positive control groups were treated by isoniazid and clofazimine. The test compounds and clofazimine were administered by gavage 5 times weekly. Untreated mice were administered by gavage with CMC. Thirty days postinfection, both untreated and treated mice were sacrificed and lung tissue CFU counts were determined. The significance of the CFU count and organ weight difference was assessed by a two-tailed Student t test. P≦0.01 was considered significant.

tuberculosis [2] = settings: mice; cited from earlier work
tuberculosis [3] = settings: hamsters; cited from earlier work
[4] = in vivo; cited from earlier work
tuberculosis [5] = settings: monkey model; cited from earlier work
tuberculosis [6] = settings: guinea pig model; cited from earlier work
[7] = system: Mycobacterium tuberculosis; settings: relative to clofazimine; cited from earlier work

Row | SMILES | melting point [°C] | MIC [1] [µg/mL] | Log CFU (TBI treated) (H37Rv) | log reduction at 20 mg/kg (H37Rv) | also measured
1 | Clc1ccc(-n2c3c/c(=N\C4CCCCC4)c(Nc4cccnc4)cc-3nc3ccccc32)cc1 [TBI-422, 5-(4-Chlorophenyl)-3-cyclohexylimino-2-(3-pyridyl)amino-3,5-dihydrophenazine] | 194 to 196 | 0.06 (≈ 0.125 µM) | – | – | –
2 | COc1ncccc1Nc1cc2nc3ccccc3n(-c3ccc(F)cc3)c-2c/c1=N\C1CCC(OC)CC1 (stereo not drawn) [TBI-1002, 5-(4-Fluorophenyl)-3-(4-methoxycyclohexyl)imino-2-(2-methoxy-3-pyridyl)amino-3,5-dihydrophenazine] | – | 0.016 (≈ 0.0306 µM) | 4.85 | 3.68 | –
3 | COC1CCC(/N=c2\cc3n(-c4ccc(Cl)cc4)c4ccccc4nc-3cc2Nc2ccc(C)nc2)CC1 (stereo not drawn) [TBI-450, 5-(4-Chlorophenyl)-3-(4-methoxycyclohexyl)imino-2-(6-methyl-3-pyridyl)amino-3,5-dihydrophenazine] | – | 0.016 (≈ 0.0305 µM) | 3.64 | 4.89 | –
4 | COc1ncccc1Nc1cc2nc3ccccc3n(-c3ccc(Cl)cc3)c-2c/c1=N\C1CCC(OC)CC1 (stereo not drawn) [TBI-444, 5-(4-Chlorophenyl)-3-(4-methoxycyclohexyl)imino-2-(2-methoxy-3-pyridyl)amino-3,5-dihydrophenazine] | – | 0.016 (≈ 0.0296 µM) | 4.71 | 3.82 | –
5 | CC(C)/N=c1\cc2n(-c3ccc(C(F)(F)F)cc3)c3ccccc3nc-2cc1Nc1cccnc1 [TBI-678, 5-(4-Trifluoromethylphenyl)-3-(1-methylethyl)imino-2-(3-pyridyl)amino-3,5-dihydrophenazine] | – | 0.03 (≈ 0.0634 µM) | 5.82 | 3 | –
6 | CN1CCC(/N=c2\cc3n(-c4ccc(Cl)cc4)c4ccccc4nc-3cc2Nc2cccnc2)CC1 [TBI-427, 5-(4-Chlorophenyl)-3-(N-methyl-4-piperidyl)imino-2-(3-pyridyl)amino-3,5-dihydrophenazine] | 198 to 200 | 0.125 (≈ 0.253 µM) | – | – | –
7 | CC(C)/N=c1\cc2n(-c3cccc(F)c3)c3ccccc3nc-2cc1Nc1cccnc1 [TBI-522, 5-(3-Fluorophenyl)-3-(1-methylethyl)imino-2-(3-pyridyl)amino-3,5-dihydrophenazine] | 164 to 166 | 0.062 (≈ 0.146 µM) | – | – | –
8 | COc1ncccc1Nc1cc2nc3ccccc3n(-c3ccc(F)cc3)c-2c/c1=N\C(C)C [TBI-1004, 5-(4-Fluorophenyl)-3-(1-methylethyl)imino-2-(2-methoxy-3-pyridyl)amino-3,5-dihydrophenazine] | – | – | 4.28 | 4.25 | –
9 | COc1ncccc1Nc1cc2nc3ccccc3n(-c3ccc(F)cc3)c-2c/c1=N\C1CC1 [TBI-1010, 5-(4-Fluorophenyl)-3-cyclopropylimino-2-(2-methoxy-3-pyridyl)amino-3,5-dihydrophenazine] | – | 0.011 (≈ 0.0244 µM) | 4.86 | 3.67 | –
10 | Cc1ccc(Nc2cc3nc4ccccc4n(-c4ccc(Cl)cc4)c-3c/c2=N\C2CCOCC2)cn1 [TBI-449, 5-(4-Chlorophenyl)-3-(4-tetrahydropyranyl)imino-2-(6-methyl-3-pyridyl)amino-3,5-dihydrophenazine] | – | 0.03 (≈ 0.0605 µM) | 3.87 | 4.66 | –
11 | COc1ncccc1Nc1cc2nc3ccccc3n(-c3ccc(Cl)cc3)c-2c/c1=N\C1CCOCC1 [TBI-443, 5-(4-chlorophenyl)-3-(4-tetrahydropyranyl)imino-2-(2-methoxy-3-pyridyl)amino-3,5-dihydrophenazine] | – | 0.016 (≈ 0.0312 µM) | 5.13 | 3.4 | –
12 | CC(C)/N=c1\cc2n(-c3ccc(Cl)cc3)c3ccccc3nc-2cc1Nc1ccc(Cl)cc1 [clofazimine] | – | – | – | – | in vivo anti-TB activity (tuberculosis [2]): demonstrated in vivo anti-TB activity; in vivo anti-TB activity (tuberculosis [3]): demonstrated in vivo anti-TB activity; half-life [4]: 70 days; efficacy (tuberculosis [5]): failed to show efficacy; efficacy (tuberculosis [6]): failed to show efficacy
13 | Clc1ccc(-n2c3c/c(=N\C4CCOCC4)c(Nc4cccnc4)cc-3nc3ccccc32)cc1 [TBI-434, 5-(4-Chlorophenyl)-3-(4-tetrahydropyranyl)imino-2-(3-pyridyl)amino-3,5-dihydrophenazine] | 215 to 217 | 0.03 (≈ 0.0622 µM) | – | – | –
14 | CCN(CC)CCC/N=c1\cc2n(-c3ccc(Cl)c(Cl)c3)c3ccccc3nc-2cc1Nc1ccc(Cl)c(Cl)c1 [B4154] | – | – | – | – | in vitro activity [7]: improved in vitro activity
15 | COC1CCC(/N=c2\cc3n(-c4ccc(Cl)cc4)c4ccccc4nc-3cc2Nc2cccnc2)CC1 (stereo not drawn) [TBI-436, 5-(4-Chlorophenyl)-3-(4-methoxycyclohexyl)imino-2-(3-pyridyl)amino-3,5-dihydrophenazine] | 228 to 230 | 0.03 (≈ 0.0588 µM) | – | – | –
16 | COc1ncccc1Nc1cc2nc3ccccc3n(-c3ccc(Br)cc3)c-2c/c1=N\C1CC1 [TBI-519, 5-(4-Bromophenyl)-3-cyclopropylimino-2-(2-methoxy-3-pyridyl)amino-3,5-dihydrophenazine] | 217 to 218 | 0.015 (≈ 0.0293 µM) | – | – | –
17 | CN1CCC(C/N=c2\cc3n(-c4ccc(Cl)cc4)c4ccccc4nc-3cc2Nc2cccnc2)CC1 [TBI-428, 5-(4-Chlorophenyl)-3-(N-methyl-4-piperidylmethyl)imino-2-(3-pyridyl)amino-3,5-dihydrophenazine] | 188 to 190 | 0.25 (≈ 0.491 µM) | – | – | –
18 | CC(C)CN1CCC(/N=c2\cc3n(-c4ccc(Cl)cc4)c4ccccc4nc-3cc2Nc2cccnc2)CC1 [TBI-435, 5-(4-Chlorophenyl)-3-(N-isobutyl-4-piperidyl)imino-2-(3-pyridyl)amino-3,5-dihydrophenazine] | 209 to 210 | 0.25 (≈ 0.465 µM) | – | – | –
19 | CC(C)/N=c1\cc2n(-c3ccc(Cl)cc3)c3ccccc3nc-2cc1Nc1cccnc1 [TBI-416, 5-(4-chlorophenyl)-3-(1-methylethyl)imino-2-(3-pyridyl)amino-3,5-dihydrophenazine] | – | 0.03 (≈ 0.0682 µM) | 3.83 | 4.7 | –
20 | COc1ncccc1Nc1cc2nc3ccccc3n(-c3ccc(OC(F)(F)F)cc3)c-2c/c1=N\C1CCC(OC)CC1 (stereo not drawn) [TBI-166, 5-(4-Trifluoromethoxyphenyl)-(4-methoxycyclohexyl)imino-2-(2-methoxy-3-pyridyl)amino-3,5-dihydrophenazine] | – | 0.016 (≈ 0.0271 µM) | 4.66 | 3.87 | –
21 | Clc1ccc(-n2c3c/c(=N\C4CCN(C5CCCC5)CC4)c(Nc4cccnc4)cc-3nc3ccccc32)cc1 [TBI-437, 5-(4-Chlorophenyl)-3-(N-cyclopentyl-4-piperidyl)imino-2-(3-pyridyl)amino-3,5-dihydrophenazine] | 170 to 172 | 0.125 (≈ 0.228 µM) | – | – | –
22 | FC(F)(F)Oc1ccc(-n2c3c/c(=N\C4CCOCC4)c(Nc4cccnc4)cc-3nc3ccccc32)cc1 [TBI-161, 5-(4-Trifluoromethoxyphenyl)-3-(4-tetrahydropyranyl)imino-2-(3-pyridyl)amino-3,5-dihydrophenazine] | – | 0.03 (≈ 0.0564 µM) | 6.05 | 2.77 | –
23 | COC1CCC(/N=c2\cc3n(-c4ccc(C(F)(F)F)cc4)c4ccccc4nc-3cc2Nc2cccnc2)CC1 (stereo not drawn) [TBI-688, 5-(4-Trifluoromethylphenyl)-3-(4-methoxycyclohexyl)imino-2-(3-pyridyl)amino-3,5-dihydrophenazine] | – | 0.03 (≈ 0.0552 µM) | 5.99 | 2.83 | –
24 | FC(F)(F)Oc1ccc(-n2c3c/c(=N\C4CCN(C5CCCC5)CC4)c(Nc4cccnc4)cc-3nc3ccccc32)cc1 [TBI-163, 5-(4-Trifluoromethoxyphenyl)-3-(N-cyclopentyl-4-piperidyl)imino-2-(3-pyridyl)amino-3,5-dihydrophenazine] | – | 0.06 (≈ 0.1 µM) | – | – | –
